Laboratory results from patent US20070049564A1 (Wyeth, priority 2005, published 2007).
Converted amounts (≈) assume the structure as drawn. Like-named read-outs stand apart in the source and are kept apart here.

Assays:
E. coli = assay: Range of MIC for E. coli strains; conditions: Escherichia coli
Staph. = assay: Range of MIC for Staph. strains, including MRSA; conditions: Staphylococcus aureus, MRSA
[1] = 20 h, read-out: Range of MIC, E. coli (Mouse Serum)
[2] = read-out: Range of MIC, E. coli (Water)
[3] = read-out: Range of MIC, Staph (Mouse Serum)
[4] = read-out: Range of MIC, Staph (Water)

Structure (SMILES) | MIC (E. coli; [1]) [µg/mL] | MIC (E. coli; [2]) [µg/mL] | MIC (Staph.; [3]) [µg/mL] | MIC (Staph.; [4]) [µg/mL]
CN(C)c1cc(NC(=O)CN(C(=O)OCOC(=O)c2cc3ccccc3[nH]2)C(C)(C)C)c(O)c2c1C[C@H]1C[C@H]3[C@H](N(C)C)C(O)=C(C(N)=O)C(=O)[C@@]3(O)C(O)=C1C2=O [Example 73, ({[(2-{[(5aR,6aS,7S,10aS)-9-(aminocarbonyl)-4,7-bis(dimethylamino)-1,8,10a,11-tetrahydroxy-10,12-dioxo-5,5a,6,6a,7,10,10a,12-octahydrotetracen-2-yl]amino}-2-oxoethyl)(tert-butyl)amino]carbonyl}oxy)methyl 1H-indole-2-carboxylate] | 0.5 to 1 (≈ 0.623 to 1.25 µM) | > 64 | 1 to 4 (≈ 1.25 to 4.98 µM) | 4 to 8 (≈ 4.98 to 9.96 µM)
Cc1cc(C)cc(C(=O)OCOC(=O)Nc2cc(N(C)C)c3c(c2O)C(=O)C2=C(O)[C@]4(O)C(=O)C(C(N)=O)=C(O)[C@@H](N(C)C)[C@@H]4C[C@@H]2C3)c1 [Example 77, [({[(5aR,6aS,7S,10aS)-9-(aminocarbonyl)-4,7-bis(dimethylamino)-1,8,10a,11-tetrahydroxy-10,12-dioxo-5,5a,6,6a,7,10,10a,12-octahydrotetracen-2-yl]amino}carbonyl)oxy]methyl 3,5-dimethylbenzoate] |  | > 64 | 2 to 4 (≈ 2.95 to 5.89 µM) | 4 to 32 (≈ 5.89 to 47.1 µM)
CN(C)c1cc(NC(=O)OCOC(=O)CC(C)(C)C)c(O)c2c1C[C@H]1C[C@H]3[C@H](N(C)C)C(O)=C(C(N)=O)C(=O)[C@@]3(O)C(O)=C1C2=O [Example 79, [({[(5aR,6aS,7S,10aS)-9-(aminocarbonyl)-4,7-bis(dimethylamino)-1,8,10a,11-tetrahydroxy-10,12-dioxo-5,5a,6,6a,7,10,10a,12-octahydrotetracen-2-yl]amino}carbonyl)oxy]methyl 3,3-dimethylbutanoate] |  | > 64 | 4 (≈ 6.2 µM) | 4 to 8 (≈ 6.2 to 12.4 µM)
CN(C)c1cc(NC(=O)CN(C(=O)OCOC(=O)c2cc3ccccc3o2)C(C)(C)C)c(O)c2c1C[C@H]1C[C@H]3[C@H](N(C)C)C(O)=C(C(N)=O)C(=O)[C@@]3(O)C(O)=C1C2=O [Example 69, ({[(2-{[(5aR,6aS,7S,10aS)-9-(aminocarbonyl)-4,7-bis(dimethylamino)-1,8,10a,11-tetrahydroxy-10,12-dioxo-5,5a,6,6a,7,10,10a,12-octahydrotetracen-2-yl]amino}-2-oxoethyl)(tert-butyl)amino]carbonyl}oxy)methyl 1-benzofuran-2-carboxylate] | 0.12 to 0.5 (≈ 0.149 to 0.622 µM) | 8 to 64 (≈ 9.95 to 79.6 µM) | 0.12 to 0.25 (≈ 0.149 to 0.311 µM) | 0.12 to 1 (≈ 0.149 to 1.24 µM)
Cc1c(C(=O)OCOC(=O)N(CC(=O)Nc2cc(N(C)C)c3c(c2O)C(=O)C2=C(O)[C@]4(O)C(=O)C(C(N)=O)=C(O)[C@@H](N(C)C)[C@@H]4C[C@@H]2C3)C(C)(C)C)oc2ccccc12 [Example 100, ({[(2-{[(5aR,6aS,7S,10aS)-9-(aminocarbonyl)-4,7-bis(dimethylamino)-1,8,10a,11-tetrahydroxy-10,12-dioxo-5,5a,6,6a,7,10,10a,12-octahydrotetracen-2-yl]amino}-2-oxoethyl)(tert-butyl)amino]carbonyl}oxy)methyl 3-methyl-1-benzofuran-2-carboxylate] | 2 (≈ 2.45 µM) |  | 0.5 to 1 (≈ 0.611 to 1.22 µM) | 2 to 4 (≈ 2.45 to 4.89 µM)
CN(C)c1cc(NC(=O)CN(C(=O)OCOC(=O)c2c3ccccc3cc3ccccc23)C(C)(C)C)c(O)c2c1C[C@H]1C[C@H]3[C@H](N(C)C)C(O)=C(C(N)=O)C(=O)[C@@]3(O)C(O)=C1C2=O [Example 106, ({[(2-{[(5aR,6aS,7S,10aS)-9-(aminocarbonyl)-4,7-bis(dimethylamino)-1,8,10a,11-tetrahydroxy-10,12-dioxo-5,5a,6,6a,7,10,10a,12-octahydrotetracen-2-yl]amino}-2-oxoethyl)(tert-butyl)amino]carbonyl}oxy)methyl anthracene-9-carboxylate] | > 64 | > 64 | > 64 | > 64
CN(C)c1cc(NC(=O)OCOC(=O)CC2CCCC2)c(O)c2c1C[C@H]1C[C@H]3[C@H](N(C)C)C(O)=C(C(N)=O)C(=O)[C@@]3(O)C(O)=C1C2=O [Example 86, [({[(5aR,6aS,7S,10aS)-9-(aminocarbonyl)-4,7-bis(dimethylamino)-1,8,10a,11-tetrahydroxy-10,12-dioxo-5,5a,6,6a,7,10,10a,12-octahydrotetracen-2-yl]amino}carbonyl)oxy]methyl cyclopentylacetate] | 8 to 16 (≈ 12.2 to 24.4 µM) | > 64 | 2 to 8 (≈ 3.05 to 12.2 µM) | 8 (≈ 12.2 µM)
CN(C)c1cc(NC(=O)CN(C(=O)OCOC(=O)COc2ccc(F)cc2)C(C)(C)C)c(O)c2c1C[C@H]1C[C@H]3[C@H](N(C)C)C(O)=C(C(N)=O)C(=O)[C@@]3(O)C(O)=C1C2=O [Example 64] | < 0.12 | 0.12 to 1 (≈ 0.148 to 1.23 µM) | 0.12 to 0.25 (≈ 0.148 to 0.308 µM) | 0.12 to 0.5 (≈ 0.148 to 0.616 µM)
Cc1cc(C)c(C(=O)OCOC(=O)N(CC(=O)Nc2cc(N(C)C)c3c(c2O)C(=O)C2=C(O)[C@]4(O)C(=O)C(C(N)=O)=C(O)[C@@H](N(C)C)[C@@H]4C[C@@H]2C3)C(C)(C)C)c(C)c1 [Example 95, ({[(2-{[(5aR,6aS,7S,10aS)-9-(aminocarbonyl)-4,7-bis(dimethylamino)-1,8,10a,11-tetrahydroxy-10,12-dioxo-5,5a,6,6a,7,10,10a,12-octahydrotetracen-2-yl]amino}-2-oxoethyl)(tert-butyl)amino]carbonyl}oxy)methyl 2,4,6-trimethylbenzoate] | > 64 | > 64 |  | > 64
CN(C)c1cc(NC(=O)CN(C(=O)OCOC(=O)c2cccnc2)C(C)(C)C)c(O)c2c1C[C@H]1C[C@H]3[C@H](N(C)C)C(O)=C(C(N)=O)C(=O)[C@@]3(O)C(O)=C1C2=O [Example 88, ({[(2-{[(5aR,6aS,7S,10aS)-9-(aminocarbonyl)-4,7-bis(dimethylamino)-1,8,10a,11-tetrahydroxy-10,12-dioxo-5,5a,6,6a,7,10,10a,12-octahydrotetracen-2-yl]amino}-2-oxoethyl)(tert-butyl)amino]carbonyl}oxy)methyl nicotinate] | 0.5 to 2 (≈ 0.654 to 2.62 µM) | 8 to 16 (≈ 10.5 to 20.9 µM) | 1 to 4 (≈ 1.31 to 5.23 µM) | 4 to 16 (≈ 5.23 to 20.9 µM)
CCCN(CC(=O)Nc1cc(N(C)C)c2c(c1O)C(=O)C1=C(O)[C@]3(O)C(=O)C(C(N)=O)=C(O)[C@@H](N(C)C)C3CC1C2)C(=O)OCc1oc(=O)oc1-c1ccc(OC)cc1 (stereo partly drawn) [Example 111, [5-(4-methoxyphenyl)-2-oxo-1,3-dioxol-4-yl]methyl 2-{[(7S,10aS)-9-(aminocarbonyl)-4,7-bis(dimethylamino)-1,8,10a,11-tetrahydroxy-10,12-dioxo-5,5a,6,6a,7,10,10a, 12-octahydrotetracen-2-yl]amino}-2-oxoethyl(propyl)carbamate] | 0.25 to 1 (≈ 0.305 to 1.22 µM) | 1 to 4 (≈ 1.22 to 4.88 µM) | 0.5 to 8 (≈ 0.61 to 9.76 µM) | 1 to 16 (≈ 1.22 to 19.5 µM)
CN(C)c1cc(NC(=O)CN(C(=O)OCOC(=O)c2ccccc2-c2ccccc2)C(C)(C)C)c(O)c2c1C[C@H]1C[C@H]3[C@H](N(C)C)C(O)=C(C(N)=O)C(=O)[C@@]3(O)C(O)=C1C2=O [Example 94, ({[(2-{[(5aR,6aS,7S,10aS)-9-(aminocarbonyl)-4,7-bis(dimethylamino)-1,8,10a,11-tetrahydroxy-10,12-dioxo-5,5a,6,6a,7,10,10a,12-octahydrotetracen-2-yl]amino}-2-oxoethyl)(tert-butyl)amino]carbonyl}oxy)methyl 1,1′-biphenyl-2-carboxylate] | 32 to 64 (≈ 38.1 to 76.2 µM) | > 64 | 16 to 32 (≈ 19 to 38.1 µM) | > 64
CN(C)c1cc(NC(=O)OCOC(=O)c2ccc(F)cc2)c(O)c2c1C[C@H]1C[C@H]3[C@H](N(C)C)C(O)=C(C(N)=O)C(=O)[C@@]3(O)C(O)=C1C2=O [Example 76, [({[(5aR,6aS,7S,10aS)-9-(aminocarbonyl)-4,7-bis(dimethylamino)-1,8,10a, 1-tetrahydroxy-10,12-dioxo-5,5a,6,6a,7,10,10a,12-octahydrotetracen-2-yl]amino}carbonyl)oxy]methyl 4-fluorobenzoate] |  | > 64 | 8 to 16 (≈ 12 to 23.9 µM) | 8 to 32 (≈ 12 to 47.9 µM)
CN(C)c1cc(NC(=O)CN(C(=O)OCOC(=O)c2cccn2C)C(C)(C)C)c(O)c2c1C[C@H]1C[C@H]3[C@H](N(C)C)C(O)=C(C(N)=O)C(=O)[C@@]3(O)C(O)=C1C2=O [Example 70] | 4 to 8 (≈ 5.22 to 10.4 µM) | > 64 | 1 to 4 (≈ 1.3 to 5.22 µM) | 2 to 4 (≈ 2.61 to 5.22 µM)
CN(C)c1cc(NC(=O)OCOC(=O)C(C)(C)C)c(O)c2c1C[C@H]1C[C@H]3[C@H](N(C)C)C(O)=C(C(N)=O)C(=O)[C@@]3(O)C(O)=C1C2=O [Example 78, [({[(5aR,6aS,7S,10aS)-9-(aminocarbonyl)-4,7-bis(dimethylamino)-1,8,10a,11-tetrahydroxy-10,12-dioxo-5,5a,6,6a,7,10,10a,12-octahydrotetracen-2-yl]amino}carbonyl)oxy]methyl pivalate] | 16 to 64 (≈ 25.4 to 101 µM) | > 64 | 8 (≈ 12.7 µM) | 8 to 32 (≈ 12.7 to 50.7 µM)
CN(C)c1cc(NC(=O)CN(C(=O)OCOC(=O)/C=C/c2ccccc2)C(C)(C)C)c(O)c2c1C[C@H]1C[C@H]3[C@H](N(C)C)C(O)=C(C(N)=O)C(=O)[C@@]3(O)C(O)=C1C2=O [Example 99, ({[(2-{[(5aR,6aS,7S,10aS)-9-(aminocarbonyl)-4,7-bis(dimethylamino)-1,8,10a,11-tetrahydroxy-10,12-dioxo-5,5a,6,6a,7,10,10a,12-octahydrotetracen-2-yl]amino}-2-oxoethyl)(tert-butyl)amino]carbonyl}oxy)methyl (2E)-3-phenylprop-2-enoate] | 1 to 2 (≈ 1.27 to 2.53 µM) | > 64 | 0.5 to 2 (≈ 0.633 to 2.53 µM) | 2 to 4 (≈ 2.53 to 5.06 µM)
CN(C)c1cc(NC(=O)CN(C(=O)OCOC(=O)c2ccccc2C(F)(F)F)C(C)(C)C)c(O)c2c1C[C@H]1C[C@H]3[C@H](N(C)C)C(O)=C(C(N)=O)C(=O)[C@@]3(O)C(O)=C1C2=O [Example 92] | 4 to 8 (≈ 4.81 to 9.62 µM) | > 64 | 4 (≈ 4.81 µM) | 8 to 32 (≈ 9.62 to 38.5 µM)
